Molecules are shown by their SMILES.

The test system of the first assay is ISR pathway (ATF4 translation). Briefly: ATF4 Nano Luciferase reporter integrated stress response (ISR) assay in H4 ATF4-NLuc cells. Conditions: Homo sapiens, H4 ATF4-NLuc (clone 17) cells; compound 30 minutes, then 50 um sodium arsenite for 6 hours; luminescence readout.
What is called IC50 is the midpoint of a concentration-inhibition curve. For `O=C(CO[C@H]1C[C@@H](OC(F)(F)F)C1)NC12CC(n3cnc(-c4ccc(C(F)(F)F)cc4F)c3)(C1)C2` [Example 148], the IC50 was 0.0026 µM.

With `O=C(COc1ccc(Cl)cc1)NC12CC(c3nnc([C@H]4C[C@@H](OC(F)(F)F)C4)o3)(C1)C2` [Example 3, 2-(4-chlorophenoxy)-N-[3-[5-[cis-3-(trifluoromethoxy)cyclobutyl]-1,3,4-oxadiazol-2-yl]-1-bicyclo[1.1.1]pentanyl]acetamide], the concentration for half-maximal inhibition (IC50) was found to be 0.0092 µM.

Staying with this assay, now noted: Homo sapiens, read-out: Activity (IC50), H4 ATF4-NLuc (clone 17) cells; compound 30 minutes, then 50 um sodium arsenite for 6 hours; luminescence readout.
In the case of `CC(C)(C)OC(=O)N1CCOC(c2nnc(C34CC(NC(=O)COc5ccc(Cl)c(F)c5)(C3)C4)o2)C1` (centres unmarked) [Example 128, tert-butyl 2-[5-[3-[[2-(4-chloro-3-fluoro-phenoxy)acetyl]amino]-1-bicyclo[1.1.1]pentanyl]-1,3,4-oxadiazol-2-yl]morpholine-4-carboxylate], the concentration for half-maximal inhibition (IC50) fell in the range of 1 to 10 µM.

Take `O=C(NC12CC(c3nnc([C@H]4C[C@@H](OC(F)(F)F)C4)o3)(C1)C2)c1nc2cc(Br)ccc2o1` [Example 193]: the half-inhibitory concentration (IC50) was under 1 µM.

Consider `O=C(NC12CC(c3nnc([C@H]4C[C@@H](OC(F)(F)F)C4)o3)(C1)C2)c1ccn(CCOC(F)(F)F)n1` [Example 225], for which the half-maximal inhibitory concentration (IC50) was under 1 µM.

On to `O=C(COc1ccc(Cl)c(F)c1)NC12CC(c3nnc(C4CC4(F)F)o3)(C1)C2` (centres unmarked) [Example 18, 2-(4-chloro-3-fluoro-phenoxy)-N-[3-[5-(2,2-difluorocyclopropyl)-1,3,4-oxadiazol-2-yl]-1-bicyclo[1.1.1]pentanyl]acetamide], for which the IC50 is under 1 µM.

With `O=C(CO[C@H]1C[C@@H](OC(F)(F)F)C1)NC12CC(c3cnn(-c4ccccc4)c3)(C1)C2` [Example 275], the 50% inhibitory concentration (IC50) is under 1 µM.

For the compound `O=C(CO[C@H]1C[C@@H](OC(F)(F)F)C1)NC12CC(n3cnc(-c4cccc(C(F)(F)F)c4)c3)(C1)C2` [Example 134], the IC50 was under 1 µM.

In the case of `COC(=O)c1cc(C(F)(F)F)ccc1-c1cn(C23CC(NC(=O)CO[C@H]4C[C@@H](OC(F)(F)F)C4)(C2)C3)cn1` [Example 273], the IC50 was under 1 µM.

`N#C[C@H]1C[C@H](n2ncc(C34CC(NC(=O)COc5ccc(Cl)c(F)c5)(C3)C4)n2)C1` [Example 33, 2-(4-chloro-3-fluorophenoxy)-N-(3-(2-((trans)-3-cyanocyclobutyl)-2H-1,2,3-triazol-4-yl)bicyclo[1.1.1]pentan-1-yl)acetamide]: the IC50 was under 1 µM.

As for `O=C(NC12CC(c3nnc([C@H]4C[C@@H](OC(F)(F)F)C4)o3)(C1)C2)C(O)Cc1ccc(Cl)cc1` (some centres unmarked) [Example 253], the IC50 was under 1 µM.

For `O=C(NC12CC(c3nnc([C@H]4C[C@@H](OC(F)(F)F)C4)o3)(C1)C2)C1=NO[C@@H](c2ccccc2)C1` [Example 99, cis-(R)-5-phenyl-N-(3-(5-(3-(trifluoromethoxy)cyclobutyl)-1,3,4-oxadiazol-2-yl)bicyclo[1.1.1]pentan-1-yl)-4,5-dihydroisoxazole-3-carboxamide], the IC50 is over 10 µM.

Take `O=C(NC12CC(c3nnc([C@H]4C[C@@H](OC(F)(F)F)C4)o3)(C1)C2)c1ccc(OC(F)(F)F)cn1` [Example 164]: the IC50 is under 1 µM.

Take `O=C(CO[C@H]1C[C@@H](OC(F)(F)F)C1)NC12CC(n3cnc(-c4ccc(F)c(F)c4)c3)(C1)C2` [Example 138]: the concentration for half-maximal inhibition (IC50) was under 1 µM.

In the case of `O=C(NC12CC(c3nnc([C@H]4C[C@@H](OC(F)(F)F)C4)o3)(C1)C2)c1cn2ncc(Cl)cc2n1` [Example 177], the IC50 was under 1 µM.

For `O=C(CO[C@H]1C[C@@H](OC(F)(F)F)C1)NC12CC(c3cnc(-c4ccc(Cl)c(F)c4)o3)(C1)C2` [Example 247], the IC50 is under 1 µM.

As for `O=C(COc1ccc(Cl)cc1)NC12CC(n3cnc([C@H]4C[C@H](OC(F)(F)F)C4)c3)(C1)C2` [Example 69, 2-(4-chlorophenoxy)-N-[3-[4-[3-trans-(trifluoromethoxy)cyclobutyl]imidazol-1-yl]-1-bicyclo[1.1.1]pentanyl]acetamide], the IC50 is under 1 µM.

`N#CC1CC([C@H]2CN(C34CC(NC(=O)COc5ccc(Cl)c(F)c5)(C3)C4)C(=O)O2)C1` (single isomer, unassigned) [Example 218]: the IC50 was under 1 µM.

For the compound `O=C(NC12CC(c3nnc([C@H]4C[C@@H](OC(F)(F)F)C4)o3)(C1)C2)c1cn2cc(C(F)(F)F)ccc2n1` [Example 186], the IC50 is under 1 µM.

As to `O=C(CO[C@H]1C[C@@H](OC(F)(F)F)C1)NC12CC(c3cnn(-c4ccc(Cl)c(F)c4)n3)(C1)C2` [Example 78, N-[3-[2-(4-chloro-3-fluoro-phenyl)triazol-4-yl]-1-bicyclo[1.1.1]pentanyl]-2-[3-cis-(trifluoromethoxy)cyclobutoxy]acetamide], the IC50 is under 1 µM.

On to `CC(C)(C)OC(=O)N1CCC(c2nnc(C34CC(NC(=O)COc5ccc(Cl)c(F)c5)(C3)C4)o2)C1` (centres unmarked) [Example 14, tert-butyl 3-[5-[3-[[2-(4-chloro-3-fluoro-phenoxy)acetyl]amino]-1-bicyclo[1.1.1]pentanyl]-1,3,4-oxadiazol-2-yl]pyrrolidine-1-carboxylate], for which the IC50 was under 1 µM.

As for `O=C(COc1ccc(Cl)c(F)c1)NC12CC(n3cnc([C@H]4C[C@H](OC(F)(F)F)C4)c3)(C1)C2` [Example 62, 2-(4-chloro-3-fluoro-phenoxy)-N-[3-[4-[3-trans-(trifluoromethoxy)cyclobutyl]imidazol-1-yl]-1-bicyclo[1.1.1]pentanyl]acetamide], the half-maximal inhibitory concentration (IC50) was under 1 µM.

With `O=C(CO[C@H]1C[C@@H](OC(F)(F)F)C1)NC12CC(n3cnc(-c4ccc(C(F)(F)F)cc4F)c3)(C1)C2` [Example 148], the IC50 was under 1 µM.

In the case of `O=C(COc1ccc(C(F)(F)F)nc1)NC12CC(c3nnc([C@H]4C[C@@H](OC(F)(F)F)C4)o3)(C1)C2` [Example 174], the IC50 was under 1 µM.

Take `O=C(COc1ccc(Cl)cc1)NC12CC(c3nnc([C@H]4C[C@@H](OC(F)(F)F)C4)o3)(C1)C2` [Example 3, 2-(4-chlorophenoxy)-N-[3-[5-[cis-3-(trifluoromethoxy)cyclobutyl]-1,3,4-oxadiazol-2-yl]-1-bicyclo[1.1.1]pentanyl]acetamide]: the concentration for half-maximal inhibition (IC50) was under 1 µM.

For the compound `O=C(COc1ccc(Cl)cc1)NC12CC(c3nnc(COC4CCC4)o3)(C1)C2` [Example 5, 2-(4-Chlorophenoxy)-N-[1-[5-(cyclobutoxymethyl)-1,3,4-oxadiazol-2-yl]-3-bicyclo[1.1.1]pentanyl]acetamide], the IC50 was under 1 µM.

Turning to `O=C(COCCOC(F)(F)F)NC12CC(c3nnc([C@H]4C[C@@H](OC(F)(F)F)C4)o3)(C1)C2` [Example 94, N-[3-[5-[3-cis-(trifluoromethoxy)cyclobutyl]-1,3,4-oxadiazol-2-yl]-1-bicyclo[1.1.1]pentanyl]-2-[2-(trifluoromethoxy)ethoxy]acetamide], the IC50 was in the range of 1 to 10 µM.

On to `O=C(NC12CC(n3cnc(-c4ccc(Cl)c(F)c4)c3)(C1)C2)C1CCN(CC(F)(F)F)CC1` [Example 155], for which the IC50 was under 1 µM.

In the case of `O=C(CO[C@H]1C[C@@H](OC(F)(F)F)C1)NC12CC(c3nnc(-c4ccn(CC(F)(F)F)n4)o3)(C1)C2` [Example 119, N-[3-[5-[1-(2,2,2-trifluoroethyl)pyrazol-3-yl]-1,3,4-oxadiazol-2-yl]-1-bicyclo[1.1.1]pentanyl]-2-[3-cis-(trifluoromethoxy)cyclobutoxy]acetamide], the half-inhibitory concentration (IC50) was in the range of 1 to 10 µM.

For `O=C(CO[C@H]1C[C@@H](n2nccn2)C1)NC12CC(c3nnc([C@H]4C[C@@H](OC(F)(F)F)C4)o3)(C1)C2` [Example 172], the IC50 fell in the range of 1 to 10 µM.

Consider `O=C(CCc1ccc(Cl)cn1)NC12CC(c3nnc([C@H]4C[C@@H](OC(F)(F)F)C4)o3)(C1)C2` [Example 56], for which the IC50 lay in the range of 1 to 10 µM.

Consider `O=C(NC12CC(c3nnc([C@H]4C[C@@H](OC(F)(F)F)C4)o3)(C1)C2)c1cnc2cc(Cl)ccc2c1` [Example 168], for which the IC50 was under 1 µM.

As to `O=C(COc1ccc(Cl)c(F)c1)NC12CC(N3CC(C4CN(CC(F)(F)F)C4)OC3=O)(C1)C2` (centres unmarked) [Example 224], the IC50 is under 1 µM.

For the compound `O=C(COc1ccc(Cl)c(F)c1)NC12CC(c3nnc(CN4CC(F)(F)C4)o3)(C1)C2` [Example 129, 2-(4-chloro-3-fluoro-phenoxy)-N-[3-[5-[(3,3-difluoroazetidin-1-yl)methyl]-1,3,4-oxadiazol-2-yl]-1-bicyclo[1.1.1]pentanyl]acetamide], the IC50 is 1 to 10 µM.

Consider `O=C(CO[C@H]1C[C@H](OC(F)(F)F)C1)NC12CC(c3nnc([C@H]4C[C@@H](OC(F)(F)F)C4)o3)(C1)C2` [Example 95, 2-[3-trans-(trifluoromethoxy)cyclobutoxy]-N-[3-[5-[3-cis-(trifluoromethoxy)cyclobutyl]-1,3,4-oxadiazol-2-yl]-1-bicyclo[1.1.1]pentanyl]acetamide], for which the half-maximal inhibitory concentration (IC50) is under 1 µM.

For the compound `O=C(COc1ccc(Cl)c(F)c1)NC12CC(c3nnc(C4CN(CC(F)F)C4)o3)(C1)C2` [Example 130, 2-(4-chloro-3-fluoro-phenoxy)-N-[3-[5-[1-(2,2-difluoroethyl)azetidin-3-yl]-1,3,4-oxadiazol-2-yl]-1-bicyclo[1.1.1]pentanyl]acetamide], the concentration for half-maximal inhibition (IC50) was under 1 µM.

As for `O=C(NC12CC(c3nnc([C@H]4C[C@@H](OC(F)(F)F)C4)o3)(C1)C2)c1cn2ccc(F)cc2n1` [Example 170], the IC50 is under 1 µM.

Regarding `O=C(NC12CC(c3nnc([C@H]4C[C@@H](OC(F)(F)F)C4)o3)(C1)C2)c1cn2cc(Cl)ccc2n1` [Example 103, 6-chloro-N-[3-[5-[3-cis-(trifluoromethoxy)cyclobutyl]-1,3,4-oxadiazol-2-yl]-1-bicyclo[1.1.1]pentanyl]imidazo[1,2-a]pyridine-2-carboxamide], the IC50 was under 1 µM.

In the case of `CCO[C@H]1C[C@@H](OCC(=O)NC23CC(n4cnc(-c5ccc(Cl)c(F)c5)c4)(C2)C3)C1` [Example 240], the IC50 was under 1 µM.

Consider `O=C(COc1ccc(Cl)c(F)c1)NC12CC(N3C[C@H](C4CC(OC(F)(F)F)C4)OC3=O)(C1)C2` (single isomer, unassigned) [Example 206], for which the concentration for half-maximal inhibition (IC50) is under 1 µM.

Still in this assay, the particulars now being: read-out: Activity (IC50); H4 ATF4-NLuc (clone 17) cells; compound 30 minutes, then 50 um sodium arsenite for 6 hours; luminescence readout.
Turning to `O=C(NC12CC(c3nnc([C@H]4C[C@@H](OC(F)(F)F)C4)o3)(C1)C2)C1CCc2cc(Cl)ccc2O1` (single isomer, unassigned) [Example 158, 6-chloro-N-(3-(5-(3-cis-(trifluoromethoxy)cyclobutyl)-1,3,4-oxadiazol-2-yl)bicyclo[1.1.1]pentan-1-yl)chroman-2-carboxamide], the IC50 is under 1 µM.

Values taken from patent publication US11851440B2, “Modulators of eukaryotic initiation factor 2B, compositions and methods” (Denali Therapeutics Inc., priority 2017, dated 2023).
